Test results taken from paper PMC3262757 (Chemistry Central Journal, 2011).

Experiments:
[1] = tested on: JNK1; format: cell-based
[2] = tested on: JNK2; format: cell-based

Compound: CCOc1nc(NC(=O)Cc2cc(OC)c(NC(C)=O)cc2OC)cc(N)c1C#N [compound 2, 2-(4-acetylamino-2,5-dimethoxyphenyl)-N-(4-amino-5-cyano-6-ethoxypyridin-2-yl)acetamide]
- IC50 [1]: ~1.5 µM
- IC50 [2]: ~1.5 µM
